The results in this text go back to ChEMBL document CHEMBL1921696, “Synthesis and biological evaluation of salicylate-based compounds as a novel class of methionine aminopeptidase inhibitors” (Bioorg Med Chem Lett, 2011).

One assay relates to Escherichia coli. In words: Antibacterial activity against Escherichia coli AS19 after 10 hrs by fluorescence assay. The assay is classed as functional, organism-based. The note with it: AS19, 10 h.
Assay [1] can be described thus: Inhibition of Escherichia coli recombinant methionine aminopeptidase expressed in Escherichia coli BL21 (DE3) using MetAMC as substrate in presence of Mn(II).
Assay [2] is described as follows: Inhibition of Escherichia coli recombinant methionine aminopeptidase expressed in Escherichia coli BL21 (DE3) using MetAMC as substrate in presence of Fe(II).
The nature of assay [3]: Inhibition of Escherichia coli recombinant methionine aminopeptidase expressed in Escherichia coli BL21 (DE3) using MetAMC as substrate in presence of Co(II).

pIC50: −log10 of the molar value. ≈ marks a conversion by molar mass, not a printed value. Some results are limits rather than exact numbers.

For orientation: pIC50 means the IC50 on a negative log10 scale, so that one unit is a factor of ten. For orientation: MIC means the least concentration at which growth counts as inhibited. Read a high MIC as weaker potency. As to `Cc1ccc(-c2ccc(C(=O)O)c(O)c2)s1`, the pIC50 with Escherichia coli is 4.14; in assay [1], 4.04; in assay [2], 3.96; in assay [3], 4.09. Further, 47 µg/mL (≈ 201 µM) was the least that counted as inhibitory against Escherichia coli (MIC).
Turning to `O=C(O)c1ccc(-c2cccs2)c(F)c1`, the pIC50 in the assay with Escherichia coli is under 3.00; in assay [1], 3.84; in assay [2], 3.57; in assay [3], 3.60. The compound further came in with an MIC against Escherichia coli of over 222 µg/mL.
The matching figures for `COc1cc(-c2cccs2)ccc1C(=O)O`: under 3.00, 4.05, 3.30, 3.60 and over 234 µg/mL.
In the case of `COc1cc(Cl)c(-c2ccc(C)s2)cc1C(=O)O`, the pIC50 in the assay with Escherichia coli was under 3.00; in assay [1], 4.94; in assay [2], 3.97; in assay [3], 4.15. In the assay with Escherichia coli, this compound returned an MIC of over 282 µg/mL.
As for `O=C(O)c1ccc(-c2cc(Cl)sc2Cl)cc1O`, the pIC50 in the assay with Escherichia coli is 4.29; in assay [1], 4.01; in assay [2], 4.52; in assay [3], 3.93. In the assay on Escherichia coli, this compound gave an MIC of 33 µg/mL (≈ 114 µM).
The matching figures for `Cc1ccc(-c2cc(C(=O)O)c(O)cc2Cl)s1`: 3.79, 4.42, 5.17, 4.11 and 87 µg/mL (≈ 324 µM).
The matching figures for `COc1cc(-c2ccc(C)s2)ccc1C(=O)O`: 3.26, 3.80, 3.57, 3.59 and 272 µg/mL (≈ 1100 µM).
For `COc1ccc(C(=O)O)cc1-c1cccs1`, the pIC50 is under 3.00 in the assay with Escherichia coli, 4.76 in assay [1], 3.72 in assay [2] and under 3.30 in assay [3]. The minimum inhibitory concentration (MIC) in the assay on Escherichia coli was over 234 µg/mL.
The matching figures for `O=C(O)c1ccc(-c2cccs2)cc1`: under 3.00, 3.80, under 3.30, 3.60 and over 204 µg/mL.
The matching figures for `O=C(O)c1cc(-c2cccs2)c(Cl)cc1O`: 4.13, 4.47, 5.51, 4.06 and 38 µg/mL (≈ 149 µM).
The matching figures for `COc1cc(-c2cc(Cl)sc2Cl)ccc1C(=O)O`: 3.08, 4.01, under 3.30, 3.54 and 521 µg/mL (≈ 1720 µM).
As for `COc1ccc(C(=O)O)cc1-c1ccc(C)s1`, the pIC50 in the assay on Escherichia coli was under 3.00; in assay [1] it was 4.47; in assay [2], 3.78; in assay [3], 3.33. The compound further gave an MIC with Escherichia coli of over 248 µg/mL.
Consider `COc1cc(Cl)c(-c2cccs2)cc1C(=O)O`, for which the pIC50 is under 3.00 in the assay with Escherichia coli, 4.72 in assay [1], 3.68 in assay [2] and 3.69 in assay [3]. This compound also yielded a minimal inhibitory concentration (MIC) against Escherichia coli of over 268 µg/mL.
The matching figures for `O=C(O)c1ccc(-c2ccc(Cl)s2)c(F)c1`: 3.19, 3.93, 3.69, 3.78 and 297 µg/mL (≈ 1160 µM).
For the compound `O=C(O)c1ccc(-c2ccc(Cl)s2)cc1O`, the negative logarithm of the IC50 (pIC50) with Escherichia coli is 4.47; in assay [1], 4.20; in assay [2], 4.14; in assay [3], 4.06. The compound further had an MIC in the assay on Escherichia coli of 28 µg/mL (≈ 110 µM).
The matching figures for `O=C(O)c1cc(-c2ccc(Cl)s2)c(Cl)cc1O`: 4.31, 4.44, 5.31, 4.13 and 30 µg/mL (≈ 104 µM).
The matching figures for `O=C(O)c1ccc(-c2cccs2)cc1O`: 3.95, 4.10, 4.41, 4.19 and 100 µg/mL (≈ 454 µM).
The matching figures for `Cc1ccc(-c2ccc(C(=O)O)cc2F)s1`: 3.06, 3.47, 3.60, 3.48 and 306 µg/mL (≈ 1300 µM).
